In patent US11691968B2, “Compound having KDM5 inhibitory activity and pharmaceutical use thereof” (ONO PHARMACEUTICAL CO., LTD., priority 2020, dated 2023):

How the values were obtained:
[1] = Metabolic Stability in Human Liver Microsomes; format: in vitro ADME
Experimental: Metabolic Stability in Human Liver Microsomes
Human liver microsome (BD Gentest Corporation, Cat No. #452161) incubations were conducted in duplicate in 96-well plates. Each well contains 40 μL of 0.1 M potassium phosphate buffer (pH 7.4), 4.125 mM MgCl2, 0.625 mg/mL liver microsomes, and test compound (1.25 μM). After 5-min preincubation at 37° C., 10 uL of 5.0 mM NADPH in 0.1M potassium phosphate buffer was added to initiate the enzymatic reaction. The final component concentrations are 0.1M potassium phosphate buffer (pH 7.4), 1.0 mM NADPH, 3.3 mM MgCl2, 0.5 mg/mL liver microsomes, and test compound (1.0 μM). Reactions were terminated at 0 and 60 min by adding 200 μL of ice-cold acetonitrile containing internal standard.
LC-MS/MS analysis was conducted as specified below.
The remaining at 60 min (%) of test compound was calculated from the peak area ratio (test compound/internal standard) of samples collected 0 and 60 min after the start of the reaction according to the formula described below. Remaining at 60 min (%)=peak area ratio of sample collected at 60 min/peak area ratio of sample collected at 0 min×100 [Results]

[2] = molecular target: KDM5A (Homo sapiens (Human), UniProt P29375); assay: Biochemical KDM5A Inhibition Assay (HTRF); conditions: KDM5A protein, biotin-labelled H3K4-Me3 substrate
Experimental: Biochemical KDM5A Inhibition Assay
Using 384-well white Greiner784075 (Greiner), representative compounds were characterized for their inhibition of KDM5A using HTRF® technology (Cisbio Bioassays). Briefly, the test compounds, reference compounds, and DMSO control (typical compound concentration range 1 μM-[…], final assay concentration (FAC*) of DMSO 0.5%) were added to 384-well plate by the Echo® acoustic dispensing platform (Labcyte). Five (5) 1l of KDM5A protein (produced by the method described in Nat Chem Biol 12, 531-538 (2016)). (5-20 nM FAC*) in assay buffer (50 mM MES, 50 mM NaCl, 1 mM TCEP, 0.01% v/v Tween 20, 0.03% BSA, pH 6.5) was added to wells and plates were incubated for 10-20 minutes at 25 degrees celsius. Then, 5 μl of alpha-ketoglutaric acid (100 μM FAC*), biotin-labelled H3K4-Me3 substrate (Anaspec Cat #AS-64357-1; 200 nM FAC*), Fe(II)SO4 (100 μM FAC*) and ascorbic acid (2 mM FAC*) in assay buffer was added to wells and plates were incubated for 20 minutes at room temperature. The reaction was stopped with the addition of 10 μl of anti-H3K4-Me2-Eu(K) (Cisbio Bioassays Cat #61KA2KAH; 0.75 nM FAC**)+Streptavidin XL665 (Cisbio Bioassays Cat #610SAXLB; 25 nM FAC**) in HTRF detection buffer (Cisbio Bioassays Cat #62SDBRDF). The mixture was incubated for 30 minutes at room temperature before 340 nm excitation and measurement of dual emission at 620 nm and 665 run. *FAC: final assay concentration calculated based on 10 μl of the assay buffer**FAC: final assay concentration calculated based on 20 μl of the detection buffer
The raw data (a 665 nm and a 620 nm reading from each well) for individual assay plates were analyzed. The ratio of emissions was calculated using the following calculation: Ratio=(665 nm emission/620 nm emission)×10000. […] Compound IC50 values were calculated from graphs of % inhibition plotted against compound concentration, using a four parameter curve fit. [Results]

[3] = 0.5 mg/mL liver microsomes, 1.0 μM test compound, 1.0 mM NADPH, 37° C., 60 min

Chain of KDM5A (P29375 whole entry): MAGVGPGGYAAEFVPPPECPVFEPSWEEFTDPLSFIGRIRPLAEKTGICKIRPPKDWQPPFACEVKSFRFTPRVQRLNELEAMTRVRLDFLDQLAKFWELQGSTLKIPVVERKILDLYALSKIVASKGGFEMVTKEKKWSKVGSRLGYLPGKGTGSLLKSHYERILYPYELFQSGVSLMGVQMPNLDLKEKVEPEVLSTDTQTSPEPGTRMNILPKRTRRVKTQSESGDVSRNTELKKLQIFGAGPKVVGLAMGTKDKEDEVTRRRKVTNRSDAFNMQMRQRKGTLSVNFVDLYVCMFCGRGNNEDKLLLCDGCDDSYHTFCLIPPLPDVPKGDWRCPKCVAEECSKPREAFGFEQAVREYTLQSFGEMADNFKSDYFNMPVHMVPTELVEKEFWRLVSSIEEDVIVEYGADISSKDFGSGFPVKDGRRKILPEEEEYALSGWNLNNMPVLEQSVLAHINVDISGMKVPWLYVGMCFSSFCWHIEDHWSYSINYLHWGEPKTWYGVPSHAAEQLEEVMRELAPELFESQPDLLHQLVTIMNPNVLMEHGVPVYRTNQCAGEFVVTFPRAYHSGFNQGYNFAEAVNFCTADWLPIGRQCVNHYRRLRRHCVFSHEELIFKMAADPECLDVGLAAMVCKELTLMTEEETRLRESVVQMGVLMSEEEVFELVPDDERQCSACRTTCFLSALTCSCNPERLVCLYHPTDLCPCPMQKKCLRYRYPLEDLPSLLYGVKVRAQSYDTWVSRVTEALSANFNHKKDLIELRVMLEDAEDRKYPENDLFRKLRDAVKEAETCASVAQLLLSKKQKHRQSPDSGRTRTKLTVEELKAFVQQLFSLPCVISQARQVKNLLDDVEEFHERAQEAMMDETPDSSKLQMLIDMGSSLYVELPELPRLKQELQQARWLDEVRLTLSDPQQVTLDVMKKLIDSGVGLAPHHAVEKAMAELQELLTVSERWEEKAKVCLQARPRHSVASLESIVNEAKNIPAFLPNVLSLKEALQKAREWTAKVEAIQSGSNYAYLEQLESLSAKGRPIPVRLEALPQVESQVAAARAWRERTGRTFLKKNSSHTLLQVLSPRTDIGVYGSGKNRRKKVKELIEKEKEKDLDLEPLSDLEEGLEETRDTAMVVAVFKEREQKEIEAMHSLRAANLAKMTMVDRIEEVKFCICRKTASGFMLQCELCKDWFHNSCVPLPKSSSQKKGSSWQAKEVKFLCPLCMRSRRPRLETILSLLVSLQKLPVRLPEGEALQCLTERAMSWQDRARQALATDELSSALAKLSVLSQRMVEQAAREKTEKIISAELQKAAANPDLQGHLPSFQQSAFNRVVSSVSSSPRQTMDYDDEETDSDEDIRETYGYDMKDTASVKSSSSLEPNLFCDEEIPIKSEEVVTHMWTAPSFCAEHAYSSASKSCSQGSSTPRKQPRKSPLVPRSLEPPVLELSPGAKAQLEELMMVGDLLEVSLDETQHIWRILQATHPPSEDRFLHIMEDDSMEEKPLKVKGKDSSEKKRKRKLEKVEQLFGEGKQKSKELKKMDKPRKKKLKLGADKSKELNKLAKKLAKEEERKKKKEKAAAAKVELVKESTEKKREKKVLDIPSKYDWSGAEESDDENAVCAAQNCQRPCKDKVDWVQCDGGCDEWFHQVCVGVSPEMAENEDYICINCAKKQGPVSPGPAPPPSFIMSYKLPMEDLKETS

Structure (SMILES) | Metabolic stability in human liver microsomes (% remaining at 60 min) ([1]; human, microsomes, 1 h) [%] | IC50 [2] [nM] | Metabolic stability in human liver microsomes (% remaining at 60 min) [1, 3] [%]
CC(n1cnc(C(=O)N2C[C@@H]3C(C4=NOC(C)(C)C4)[C@@H]3C2)c1)C(F)(F)F (stereo partly drawn) [Example 9, [(1R,5S,6r)-6-(5,5-dimethyl-4,5-dihydro-1,2-oxazol-3-yl)-3-azabicyclo[3.1.0]hex-3-yl][1-(1,1,1-trifluoropropan-2-yl)-1H-imidazol-4-yl]methanone] | 93 | 400 | –
C[C@@H](c1ccccc1C#N)n1cnc(C(=O)N2C[C@@H]3[C@H](C2)[C@H]3C2=NOC(C)(C)C2)c1 [Example 22, 2-[(1S)-1-(4-{[(1R,5S,6S)-6-(5,5-dimethyl-4,5-dihydro-1,2-oxazol-3-yl)-3-azabicyclo[3.1.0]hex-3-yl]carbonyl}-1H-imidazol-1-yl)ethyl]benzonitrile] | – | 400 | –
C[C@@H](c1ccc(C#N)cc1)n1cnc(C(=O)N2C[C@@H]3[C@H](C2)[C@H]3C2=NOC(C)(C)C2)c1 [Example 24, 4-[(1S)-1-(4-{[(1R,5S,6S)-6-(5,5-dimethyl-4,5-dihydro-1,2-oxazol-3-yl)-3-azabicyclo[3.1.0]hex-3-yl]carbonyl}-1H-imidazol-1-yl)ethyl]benzonitrile] | 101 | 200 | –
C[C@@H](c1nccs1)n1cnc(C(=O)N2C[C@@H]3[C@H](C2)[C@H]3C2=NOC(C)(C)C2)c1 [Example 27, [(1R,5S,6S)-6-(5,5-dimethyl-4,5-dihydro-1,2-oxazol-3-yl)-3-azabicyclo[3.1.0]hex-3-yl]{1-[(1S)-1-(1,3-thiazol-2-yl)ethyl]-1H-imidazol-4-yl}methanone] | 97 | 1000 | –
CC(C)n1cnc(C(=O)N2C[C@@H]3C(C4=NOC(C)(C(F)F)C4)[C@@H]3C2)c1 (stereo partly drawn) [Example 40, {(1R,5S,6r)-6-[5-(difluoromethyl)-5-methyl-4,5-dihydro-1,2-oxazol-3-yl]-3-azabicyclo[3.1.0]hex-3-yl}(1-isopropyl-1H-imidazol-4-yl)methanone] | – | 200 | 103
Cc1onc([C@H]2[C@@H]3CN(C(=O)c4cn(C(C)C)cn4)C[C@@H]32)c1-c1ccccc1 [Example 55, (1-isopropyl-1H-imidazol-4-yl)[(1R,5S,6r)-6-(5-methyl-4-phenyl-1,2-oxazol-3-yl)-3-azabicyclo[3.1.0]hex-3-yl]methanone] | – | 20 | –
Cc1cc([C@H]2[C@@H]3CN(C(=O)c4cn(C(C)C)cn4)C[C@@H]32)no1 [Example 56, (1-isopropyl-1H-imidazol-4-yl)[(1R,5S,6r)-6-(5-methyl-1,2-oxazol-3-yl)-3-azabicyclo[3.1.0]hex-3-yl]methanone] | – | 200 | –
CC(C)n1cnc(C(=O)N2C[C@@H]3[C@H](C2)[C@H]3C2=NOC(C)(C)N2C)c1 [Example 59, (1-isopropyl-1H-imidazol-4-yl)[(1R,5S,6r)-6-(4,5,5-trimethyl-4,5-dihydro-1,2,4-oxadiazol-3-yl)-3-azabicyclo[3.1.0]hex-3-yl]methanone] | 100 | 20 | –
CCN1C([C@H]2[C@@H]3CN(C(=O)c4cn(C(C)C)cn4)C[C@@H]32)=NOC1(C)C [Example 60, [(1R,5S,6r)-6-(4-ethyl-5,5-dimethyl-4,5-dihydro-1,2,4-oxadiazol-3-yl)-3-azabicyclo[3.1.0]hex-3-yl](1-isopropyl-1H-imidazol-4-yl)methanone] | 102 | 200 | –
CC(C)n1cnc(C(=O)N2C[C@@H]3[C@H](C2)[C@H]3c2nnn3ccccc23)c1 [Example 62, (1-isopropyl-1H-imidazol-4-yl)[(1R,5S,6r)-6-([1,2,3]triazolo[1,5-a]pyridin-3-yl)-3-azabicyclo[3.1.0]hex-3-yl]methanone] | 83 | 10 | –
CC(C)n1cnc(C(=O)N2C[C@@H]3[C@H](C2)[C@H]3c2nnn[nH]2)c1 [Example 63, (1-isopropyl-1H-imidazol-4-yl)[(1R,5S,6r)-6-(1H-tetrazol-5-yl)-3-azabicyclo[3.1.0]hex-3-yl]methanone] | – | 10 | –
CC(C)n1cnc(C(=O)N2C[C@@H]3[C@H](C2)[C@H]3C(=O)NC(C)(C)C)c1 [Example 65, (1R,5S,6r)-N-tert-butyl-3-[1-(propan-2-yl)-1H-imidazole-4-carbonyl]-3-azabicyclo[3.1.0]hexane-6-carboxamide] | – | 20 | 93
CC(C)n1cnc(C(=O)N2C[C@@H]3[C@H](C2)[C@H]3C(=O)N(C)C(C)(C)C)c1 [Example 66, (1R,5S,6r)-N-tert-butyl-N-methyl-3-[1-(propan-2-yl)-1H-imidazole-4-carbonyl]-3-azabicyclo[3.1.0]hexane-6-carboxamide] | – | 30 | 89
CC(C)n1cnc(C(=O)N2C[C@@H]3[C@H](C2)[C@H]3C(=O)N(C)C2(C#N)CC2)c1 [Example 69, (1R,5S,6r)-N-(1-cyanocyclopropyl)-N-methyl-3-[1-(propan-2-yl)-1H-imidazole-4-carbonyl]-3-azabicyclo[3.1.0]hexane-6-carboxamide] | – | 200 | 89
CC(C)n1cnc(C(=O)N2C[C@@H]3[C@H](C2)[C@H]3C(=O)c2cccs2)c1 [Example 76, (1-isopropyl-1H-imidazol-4-yl)[(1R,5S,6r)-6-(2-thienylcarbonyl)-3-azabicyclo[3.1.0]hex-3-yl]methanone] | – | 60 | –
Cc1csc(C(=O)[C@H]2[C@@H]3CN(C(=O)c4cn(C(C)C)cn4)C[C@@H]32)c1 [Example 77, (1-isopropyl-1H-imidazol-4-yl){(1R,5S,6r)-6-[(4-methyl-2-thienyl)carbonyl]-3-azabicyclo[3.1.0]hex-3-yl}methanone] | – | 20 | –
Cc1cc([C@H]2[C@@H]3CN(C(=O)c4cc(C(C)C)[nH]n4)C[C@@H]32)no1 [Example 103, (5-isopropyl-1H-pyrazol-3-yl)[(1R,5S,6r)-6-(5-methyl-1,2-oxazol-3-yl)-3-azabicyclo[3.1.0]hex-3-yl]methanone] | – | 200 | –
Cc1c([C@H]2[C@@H]3CN(C(=O)c4cc(C(C)C)[nH]n4)C[C@@H]32)noc1C(F)F [Example 104, {(1R,5S,6r)-6-[5-(difluoromethyl)-4-methyl-1,2-oxazol-3-yl]-3-azabicyclo[3.1.0]hex-3-yl}(5-isopropyl-1H-pyrazol-3-yl)methanone] | – | 40 | –
Cc1onc([C@H]2[C@@H]3CN(C(=O)c4cc(C(C)C)[nH]n4)C[C@@H]32)c1-c1ccccn1 [Example 106, (5-isopropyl-1H-pyrazol-3-yl){(1R,5S,6r)-6-[5-methyl-4-(2-pyridinyl)-1,2-oxazol-3-yl]-3-azabicyclo[3.1.0]hex-3-yl}methanone] | – | 40 | –
CC(C)c1cc(C(=O)N2C[C@@H]3[C@H](C2)[C@H]3c2nnn3ccccc23)n[nH]1 [Example 132, (5-isopropyl-1H-pyrazol-3-yl)[(1R,5S,6r)-6-([1,2,3]triazolo[1,5-a]pyridin-3-yl)-3-azabicyclo[3.1.0]hex-3-yl]methanone] | – | 40 | –
CC(C)c1cc(C(=O)N2C[C@@H]3[C@H](C2)[C@H]3c2nnn[nH]2)n[nH]1 [Example 134, (5-isopropyl-1H-pyrazol-3-yl)[(1R,5S,6r)-6-(1H-tetrazol-5-yl)-3-azabicyclo[3.1.0]hex-3-yl]methanone] | – | 4 | –
CC(C)c1cc(C(=O)N2C[C@@H]3[C@H](C2)[C@H]3C(=O)N(C)C2(C)CC2)n[nH]1 [Example 138, (1R,5S,6r)-N-methyl-N-(1-methylcyclopropyl)-3-[5-(propan-2-yl)-1H-pyrazole-3-carbonyl]-3-azabicyclo[3.1.0]hexane-6-carboxamide] | – | 800 | –
